Assay results: patent publication US12612407B2, “Imidazo[2,1-f][1,2,4]triazin-4-amine derivatives as TLR7 agonist” (BEIGENE, LTD., priority 2020, dated 2026)

Target: T1, human TLR7 (Homo sapiens, UniProt Q9NYK1)
T1 construct: host or cells: HEK293 (HEK-Blue hTLR7)
T1 sequence (Q9NYK1 27-1049): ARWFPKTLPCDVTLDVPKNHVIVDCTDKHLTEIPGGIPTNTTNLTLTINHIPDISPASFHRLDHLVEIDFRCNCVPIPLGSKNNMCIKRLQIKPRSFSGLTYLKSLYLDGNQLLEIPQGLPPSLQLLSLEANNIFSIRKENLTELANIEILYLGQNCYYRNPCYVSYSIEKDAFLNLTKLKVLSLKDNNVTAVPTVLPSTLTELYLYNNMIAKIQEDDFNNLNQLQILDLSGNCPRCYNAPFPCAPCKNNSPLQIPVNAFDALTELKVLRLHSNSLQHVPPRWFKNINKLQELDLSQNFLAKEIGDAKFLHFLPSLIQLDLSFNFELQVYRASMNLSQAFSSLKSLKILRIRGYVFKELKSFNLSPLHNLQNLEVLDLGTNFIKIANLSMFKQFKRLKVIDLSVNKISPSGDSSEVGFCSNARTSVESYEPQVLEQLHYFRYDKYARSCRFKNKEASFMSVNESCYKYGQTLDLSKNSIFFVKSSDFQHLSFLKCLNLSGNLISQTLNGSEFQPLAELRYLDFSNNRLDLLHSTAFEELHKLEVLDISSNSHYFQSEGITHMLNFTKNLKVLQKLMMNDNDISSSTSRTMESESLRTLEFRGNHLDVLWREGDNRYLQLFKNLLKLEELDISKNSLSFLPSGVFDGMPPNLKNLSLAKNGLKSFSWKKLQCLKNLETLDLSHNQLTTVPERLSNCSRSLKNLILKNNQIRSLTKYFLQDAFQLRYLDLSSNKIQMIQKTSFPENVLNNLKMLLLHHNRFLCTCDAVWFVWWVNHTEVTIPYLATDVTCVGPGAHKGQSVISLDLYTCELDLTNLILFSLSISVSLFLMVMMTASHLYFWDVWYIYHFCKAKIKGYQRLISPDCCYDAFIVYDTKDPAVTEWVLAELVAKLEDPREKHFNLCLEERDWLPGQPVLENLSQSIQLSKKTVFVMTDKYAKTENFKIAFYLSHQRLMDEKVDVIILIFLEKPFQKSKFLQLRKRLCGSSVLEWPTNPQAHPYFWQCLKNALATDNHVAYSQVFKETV
Experiment: HEK293-Blue hTLR7 Reporter Assay (QUANTI-BLUE, SEAP readout)
Type: cell-based
Conditions: HEK-Blue-hTLR7 cells, 24 hrs treatment, Table 1, B1-B232
In short: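 Compound titrations were applied for 24 h at 37° C to reporter HEK293 cells (4×10^4 per well) in which human TLR7 activation drives secreted alkaline phosphatase. Supernatants reacted with Quanti-blue 10-30 min, absorbance read at 620-655 nm, and EC50 derived by sigmoidal curve fitting.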

SMILES	EC50 [nM]
CCCCOc1nc(N)c2ncc(Cc3cnc(N4CCN(C(=O)CN(CC)CC)CC4)c(C)c3)n2n1 [Compound B170, 1-(4-(5-((4-amino-2-butoxyimidazo[2,1-f][1,2,4]triazin-7-yl)methyl)-3-methylpyridin-2-yl)piperazin-1-yl)-2-(diethylamino)ethan-1-one]	29
CCCCOc1nc(N)c2ncc(Cc3cnc(N4CC5(CCNCC5)C4)c(C)c3)n2n1 [Compound B102, 2-butoxy-7-((5-methyl-6-(2,7-diazaspiro[3.5]nonan-2-yl)pyridin-3-yl)methyl)imidazo[2,1-f][1,2,4]triazin-4-amine]	464
CCC(CC)Oc1nc(N)c2ncc(Cc3cnc(N4CCC(CN(C)C)CC4)c(C)c3)n2n1 [Compound B189, 7-((6-(4-((dimethylamino)methyl)piperidin-1-yl)-5-methylpyridin-3-yl)methyl)-2-(pentan-3-yloxy)imidazo[2,1-f][1,2,4]triazin-4-amine]	19
CCCCOc1nc(N)c2ncc(Cc3cnc(N4CCN(CC)CC4)c(C)c3)n2n1 [Compound B114, 2-butoxy-7-((6-(4-ethylpiperazin-1-yl)-5-methylpyridin-3-yl)methyl)imidazo[2,1-f][1,2,4]triazin-4-amine]	168
CCCCOc1nc(N)c2ncc(Cc3cnc(N4CCC(N(C)C)C4)c(C)c3)n2n1 (stereo not shown) [Compound B87, 2-butoxy-7-((6-(3-(dimethylamino)pyrrolidin-1-yl)-5-methylpyridin-3-yl)methyl)imidazo[2,1-f][1,2,4]triazin-4-amine]	435
CCCCOc1nc(N)c2ncc(Cc3cnc(N4CCN(S(=O)(=O)CCC)CC4)c(C)c3)n2n1 [Compound B89, 2-butoxy-7-((5-methyl-6-(4-(propylsulfonyl)piperazin-1-yl)pyridin-3-yl)methyl)imidazo[2,1-f][1,2,4]triazin-4-amine]	> 10000
CCC[C@@H](C)Oc1nc(N)c2ncc(Cc3cnc(N4CCC(CNC)CC4)c(C)c3)n2n1 (single isomer, unassigned) [Compound B222]	60
CCCCOc1nc(N)c2ncc(Cc3cnc(N4CCN(C(=O)CN(C)C)[C@@H](C)C4)c(C)c3)n2n1 [Compound B179, (S)-1-(4-(5-((4-amino-2-butoxyimidazo[2,1-f][1,2,4]triazin-7-yl)methyl)-3-methylpyridin-2-yl)-2-methylpiperazin-1-yl)-2-(dimethylamino)ethan-1-one]	38
CCC(CC)Oc1nc(N)c2ncc(Cc3cnc(N4CCC(N(C)C)CC4)c(C)c3)n2n1 [Compound B187, 7-((6-(4-(dimethylamino)piperidin-1-yl)-5-methylpyridin-3-yl)methyl)-2-(pentan-3-yloxy)imidazo[2,1-f][1,2,4]triazin-4-amine]	29
CCCCOc1nc(N)c2ncc(Cc3cnc(N4CCN[C@@H](C)C4)c(C)c3)n2n1 [Compound B132, (S)-2-butoxy-7-((5-methyl-6-(3-methylpiperazin-1-yl)pyridin-3-yl)methyl)imidazo[2,1-f][1,2,4]triazin-4-amine]	48
CCCCOc1nc(N)c2ncc(Cc3cnc(N4CCN(C(=O)C5CNCCN5)CC4)c(C)c3)n2n1 (stereo not shown) [Compound B41, (4-(5-((4-amino-2-butoxyimidazo[2,1-f][1,2,4]triazin-7-yl)methyl)-3-methylpyridin-2-yl)piperazin-1-yl)(piperazin-2-yl)methanone]	600
Cc1cc(Cc2cnc3c(N)nc(OC4CCCCC4)nn23)cnc1N1CCNCC1 [Compound B167, 2-(cyclohexyloxy)-7-((5-methyl-6-(piperazin-1-yl)pyridin-3-yl)methyl)imidazo[2,1-f][1,2,4]triazin-4-amine]	497
CCC[C@@H](C)Nc1nc(N)c2ncc(Cc3cnc(N4CCNCC4)c(C)c3)n2n1 (single isomer, unassigned) [Compound B207]	56
CCCCOc1nc(N)c2ncc(Cc3cnc(N4CCOCC4)c(C)c3)n2n1 [Compound B52, 2-butoxy-7-((5-methyl-6-morpholinopyridin-3-yl)methyl)imidazo[2,1-f][1,2,4]triazin-4-amine]	> 10000
CCC[C@H](C)Nc1nc(N)c2ncc(Cc3cnc(N4CCC(N(C)C)CC4)c(C)c3)n2n1 (single isomer, unassigned) [Compound B173]	2.3
CCC(CC)Oc1nc(N)c2ncc(Cc3cnc(N4CCN(C(=O)CN(C)C)CC4)c(C)c3)n2n1 [Compound B200, 1-(4-(5-((4-amino-2-(pentan-3-yloxy)imidazo[2,1-f][1,2,4]triazin-7-yl)methyl)-3-methylpyridin-2-yl)piperazin-1-yl)-2-(dimethylamino)ethan-1-one]	25
CCCCOc1nc(N)c2ncc(Cc3cnc(N4CCN(C(=O)[C@@H]5CCCN5)CC4)c(C)c3)n2n1 [Compound B68, (S)-4-amino-2-butoxy-7-((5-methyl-6-(4-prolylpiperazin-1-yl)pyridin-3-yl)methyl)imidazo[2,1-f][1,2,4]triazine]	106
CCCCOc1nc(N)c2ncc(Cc3cnc(N4CCC(OC)CC4)c(C)c3)n2n1 [Compound B103, 2-butoxy-7-((6-(4-methoxypiperidin-1-yl)-5-methylpyridin-3-yl)methyl)imidazo[2,1-f][1,2,4]triazin-4-amine]	7960
CCC(C)Oc1nc(N)c2ncc(Cc3cnc(N4CCNCC4)c(C)c3)n2n1 (stereo not shown) [Compound B112, 2-(sec-butoxy)-7-((5-methyl-6-(piperazin-1-yl)pyridin-3-yl)methyl)imidazo[2,1-f][1,2,4]triazin-4-amine]	37
CCCCOc1nc(N)c2ncc(Cc3ccc(N4CCNCC4)nc3C)n2n1 [Compound B53, 2-butoxy-7-((2-methyl-6-(piperazin-1-yl)pyridin-3-yl)methyl)imidazo[2,1-f][1,2,4]triazin-4-amine]	803
CCCC(CCC)Nc1nc(N)c2ncc(Cc3cnc(N4CCN(C(=O)CNC)CC4)c(C)c3)n2n1 [Compound B196, 1-(4-(5-((4-amino-2-(heptan-4-ylamino)imidazo[2,1-f] [1,2,4]triazin-7-yl)methyl)-3-methylpyridin-2-yl)piperazin-1-yl)-2-(methylamino)ethan-1-one]	5.7
CCCC(C)Oc1nc(N)c2ncc(Cc3cnc(N4CCC(N(C)C)CC4)c(C)c3)n2n1 (stereo not shown) [Compound B133, 7-((6-(4-(dimethylamino)piperidin-1-yl)-5-methylpyridin-3-yl)methyl)-2-(pentan-2-yloxy)imidazo[2,1-f][1,2,4]triazin-4-amine]	5.6
CCC[C@H](C)Oc1nc(N)c2ncc(Cc3cnc(N4CCN(C(=O)CNC)CC4)c(C)c3)n2n1 [Compound B154, (S)-1-(4-(5-((4-amino-2-(pentan-2-yloxy)imidazo[2,1-f][1,2,4]triazin-7-yl)methyl)-3-methylpyridin-2-yl)piperazin-1-yl)-2-(methylamino)ethan-1-one]	1.6
CCCC(CO)Nc1nc(N)c2ncc(Cc3cnc(N4CCC(CNC)CC4)c(C)c3)n2n1 (stereo not shown) [Compound B232, 2-((4-amino-7-((5-methyl-6-(4-((methylamino)methyl)piperidin-1-yl)pyridin-3-yl)methyl)imidazo[2,1-f][1,2,4]triazin-2-yl)amino)pentan-1-ol]	31
CCCCOc1nc(N)c2ncc(Cc3cnc(N4CCN(CCN)CC4)c(C)c3)n2n1 [Compound B91, 7-((6-(4-(2-aminoethyl)piperazin-1-yl)-5-methylpyridin-3-yl)methyl)-2-butoxyimidazo[2,1-f][1,2,4]triazin-4-amine]	150
CCC[C@H](C)Nc1nc(N)c2ncc(Cc3cnc(N4CCN(C(=O)CNC)CC4)c(C)c3)n2n1 [Compound B231, (S)-1-(4-(5-((4-amino-2-(pentan-2-ylamino)imidazo[2,1-f][1,2,4]triazin-7-yl)methyl)-3-methylpyridin-2-yl)piperazin-1-yl)-2-(methylamino)ethan-1-one]	4.1
CCCC(CC)Oc1nc(N)c2ncc(Cc3cnc(N4CCN(C(=O)CNC)CC4)c(C)c3)n2n1 (stereo not shown) [Compound B181, 1-(4-(5-((4-amino-2-(hexan-3-yloxy)imidazo[2,1-f][1,2,4]triazin-7-yl)methyl)-3-methylpyridin-2-yl)piperazin-1-yl)-2-(methylamino)ethan-1-one]	7.8
CCCCOc1nc(N)c2ncc(Cc3cnc(N4CCN(C(=O)CN5CCNCC5)CC4)c(C)c3)n2n1 [Compound B40, 1-(4-(5-((4-amino-2-butoxyimidazo[2,1-f][1,2,4]triazin-7-yl)methyl)-3-methylpyridin-2-yl)piperazin-1-yl)-2-(piperazin-1-yl)ethan-1-one]	908
